For data set [1], the system named is Erythrocyte. The data set is described as follows: Hemolytic activity in human erythrocytes at 10 ug/ml incubated for 1 hr by absorbance based analysis. The format is toxicity, cell-based. The note with it: dose 10 µg/ml.
For data set [2], the system named is Erythrocyte. Briefly: Hemolytic activity in human erythrocytes at 50 ug/ml incubated for 1 hr by absorbance based analysis. The class given is toxicity, cell-based. The conditions noted are these: dose 50 µg/ml.
The nature of data set [3]: Ion conductance property of compound in Diphytanoylphosphatidyl-choline bilayer assessed as ion channel forming ability at 1 uM treated at cis-side of the membrane at +100 mV by tip-dip patch clamp method.

Active and inactive are the calls of the source. No cut-off for these calls is given here. Where a SMILES comes first, the peptide text is derived from it. [ ]: non-standard residue; d: D form. Aib = CC(C)(N)C(=O)O

On to `CC(=O)NC(C)(C)C(=O)N[C@@H](CC(N)=O)C(=O)N[C@@H](CC(C)C)C(=O)N[C@@H](CC(C)C)C(=O)NC(C)(C)C(=O)N1CCC[C@H]1C(=O)N[C@@H](CC(C)C)C(=O)N[C@@H](CC(C)C)C(=O)NC(C)(C)C(=O)N1CCC[C@H]1C(=O)N[C@@H](CC(C)C)C(=O)O` (Ac-[Aib]NLL[Aib]PLL[Aib]PL-OH), for which the Activity result in data set [1] was “Non-Toxic”; in data set [2], “Toxic”. Moreover, the outcome in data set [3] was inactive.

`CC[C@H](C)[C@H](NC(=O)[C@H](CC(N)=O)NC(=O)C(C)(C)NC(C)=O)C(=O)N[C@@H](CC(C)C)C(=O)NC(C)(C)C(=O)N1CCC[C@H]1C(=O)N[C@@H](CC(C)C)C(=O)N[C@@H](CC(C)C)C(=O)NC(C)(C)C(=O)N1CCC[C@H]1C(=O)N[C@@H](CC(C)C)C(=O)O` (Ac-[Aib]NIL[Aib]PLL[Aib]PL-OH): the results for the Activity entry in data set [1] and in data set [2] were “Non-Toxic” and “Toxic”, respectively. Besides, in data set [3], the outcome was inactive.

`CC[C@H](C)[C@H](NC(=O)[C@@H]1CCCN1C(=O)C(C)(C)NC(=O)[C@H](CC(C)C)NC(=O)[C@@H](NC(=O)[C@@H]1CCCN1C(=O)C(C)(C)NC(=O)[C@@H](NC(=O)[C@@H](NC(=O)[C@H](CC(N)=O)NC(=O)C(C)(C)NC(C)=O)[C@@H](C)CC)[C@@H](C)CC)[C@@H](C)CC)C(=O)O` (Ac-[Aib]NII[Aib]PIL[Aib]PI-OH): the Activity entry was “Non-Toxic” in data set [1] and “Toxic” in data set [2]. For the same compound, the outcome in data set [3] was Active.

As to `CC[C@H](C)[C@H](NC(=O)[C@@H](NC(=O)[C@@H]1CCCN1C(=O)C(C)(C)NC(=O)[C@H](CC(C)C)NC(=O)[C@H](CC(C)C)NC(=O)[C@H](CC(N)=O)NC(=O)C(C)(C)NC(C)=O)[C@@H](C)CC)C(=O)NC(C)(C)C(=O)N1CCC[C@H]1C(=O)N[C@@H](CC(C)C)C(=O)O` (Ac-[Aib]NLL[Aib]PII[Aib]PL-OH), the Activity result in data set [1] is “Non-Toxic”; in data set [2], “Toxic”.

Turning to `CC[C@H](C)[C@H](NC(=O)[C@H](CC(N)=O)NC(=O)C(C)(C)NC(C)=O)C(=O)N[C@H](C(=O)NC(C)(C)C(=O)N1CCC[C@H]1C(=O)N[C@@H](CC(C)C)C(=O)N[C@@H](CC(C)C)C(=O)NC(C)(C)C(=O)N1CCC[C@H]1C(=O)N[C@@H](CC(C)C)C(=O)O)[C@@H](C)CC` (Ac-[Aib]NII[Aib]PLL[Aib]PL-OH), the Activity entry in data set [1] is “Non-Toxic”; in data set [2], “Toxic”. Moreover, the outcome in data set [3] was Active.

As to `CC[C@H](C)[C@H](NC(=O)[C@@H]1CCCN1C(=O)C(C)(C)NC(=O)[C@H](CC(C)C)NC(=O)[C@H](CC(C)C)NC(=O)[C@@H]1CCCN1C(=O)C(C)(C)NC(=O)[C@@H](NC(=O)[C@@H](NC(=O)[C@H](CC(N)=O)NC(=O)C(C)(C)NC(C)=O)[C@@H](C)CC)[C@@H](C)CC)C(=O)O` (Ac-[Aib]NII[Aib]PLL[Aib]PI-OH), the Activity entry in data set [1] is reported as “Non-Toxic”; in data set [2], “Toxic”. Further, in data set [3], the outcome was Active.

On to `CC[C@H](C)[C@H](NC(=O)[C@H](CC(N)=O)NC(=O)C(C)(C)NC(C)=O)C(=O)N[C@H](C(=O)NC(C)(C)C(=O)N1CCC[C@H]1C(=O)N[C@H](C(=O)N[C@H](C(=O)NC(C)(C)C(=O)N1CCC[C@H]1C(=O)N[C@@H](CC(C)C)C(=O)O)[C@@H](C)CC)[C@@H](C)CC)[C@@H](C)CC` (Ac-[Aib]NII[Aib]PII[Aib]PL-OH), for which the Activity result in data set [2] is “Toxic”. Also, in data set [3], the outcome was Active.

Consider `CC[C@H](C)[C@H](NC(=O)[C@@H]1CCCN1C(=O)C(C)(C)NC(=O)[C@@H](NC(=O)[C@@H](NC(=O)[C@@H]1CCCN1C(=O)C(C)(C)NC(=O)[C@@H](NC(=O)[C@@H](NC(=O)[C@H](CC(N)=O)NC(=O)C(C)(C)NC(C)=O)[C@@H](C)CC)[C@@H](C)CC)[C@@H](C)CC)[C@@H](C)CC)C(=O)O` (Ac-[Aib]NII[Aib]PII[Aib]PI-OH), for which the Activity result in data set [1] is reported as “Non-Toxic”; in data set [2] it was “Toxic”. Further, the result in data set [3] was Active.

As for `CC[C@H](C)[C@H](NC(=O)[C@H](CC(C)C)NC(=O)[C@H](CC(N)=O)NC(=O)C(C)(C)NC(C)=O)C(=O)NC(C)(C)C(=O)N1CCC[C@H]1C(=O)N[C@H](C(=O)N[C@H](C(=O)NC(C)(C)C(=O)N1CCC[C@H]1C(=O)N[C@@H](CC(C)C)C(=O)O)[C@@H](C)CC)[C@@H](C)CC` (Ac-[Aib]NLI[Aib]PII[Aib]PL-OH), the Activity entry in data set [1] is on record as “Non-Toxic”; in data set [2] it was “Toxic”. The result in data set [3] was inactive.

Turning to `CC[C@H](C)[C@H](NC(=O)[C@H](CC(N)=O)NC(=O)C(C)(C)NC(C)=O)C(=O)N[C@H](C(=O)NC(C)(C)C(=O)N1CCC[C@H]1C(=O)N[C@H](C(=O)N[C@@H](CC(C)C)C(=O)NC(C)(C)C(=O)N1CCC[C@H]1C(=O)N[C@@H](CC(C)C)C(=O)O)[C@@H](C)CC)[C@@H](C)CC` (Ac-[Aib]NII[Aib]PIL[Aib]PL-OH), the Activity result was “Non-Toxic” in data set [1] and “Toxic” in data set [2]. Further, the result in data set [3] was inactive.

For the compound `CC[C@H](C)[C@H](NC(=O)[C@H](CC(C)C)NC(=O)[C@@H]1CCCN1C(=O)C(C)(C)NC(=O)[C@H](CC(C)C)NC(=O)[C@H](CC(C)C)NC(=O)[C@H](CC(N)=O)NC(=O)C(C)(C)NC(C)=O)C(=O)NC(C)(C)C(=O)N1CCC[C@H]1C(=O)N[C@@H](CC(C)C)C(=O)O` (Ac-[Aib]NLL[Aib]PLI[Aib]PL-OH), the Activity entry in data set [1] is recorded as “Non-Toxic”; in data set [2], “Toxic”.

As to `CC[C@H](C)[C@H](NC(=O)[C@@H]1CCCN1C(=O)C(C)(C)NC(=O)[C@H](CC(C)C)NC(=O)[C@H](CC(C)C)NC(=O)[C@@H]1CCCN1C(=O)C(C)(C)NC(=O)[C@H](CC(C)C)NC(=O)[C@H](CC(C)C)NC(=O)[C@H](CC(N)=O)NC(=O)C(C)(C)NC(C)=O)C(=O)O` (Ac-[Aib]NLL[Aib]PLL[Aib]PI-OH), the Activity result in data set [1] is “Non-Toxic”; in data set [2] it was “Toxic”. In addition, the result in data set [3] was Active.

For the compound `CC[C@H](C)[C@H](NC(=O)[C@@H]1CCCN1C(=O)C(C)(C)NC(=O)[C@@H](NC(=O)[C@H](CC(C)C)NC(=O)[C@@H]1CCCN1C(=O)C(C)(C)NC(=O)[C@H](CC(C)C)NC(=O)[C@H](CC(C)C)NC(=O)[C@H](CC(N)=O)NC(=O)C(C)(C)NC(C)=O)[C@@H](C)CC)C(=O)O` (Ac-[Aib]NLL[Aib]PLI[Aib]PI-OH), in data set [2], the Activity result was “Toxic”. The result in data set [3] was Active.

`CC[C@H](C)[C@H](NC(=O)[C@@H]1CCCN1C(=O)C(C)(C)NC(=O)[C@@H](NC(=O)[C@@H](NC(=O)[C@@H]1CCCN1C(=O)C(C)(C)NC(=O)[C@@H](NC(=O)[C@H](CC(C)C)NC(=O)[C@H](CC(N)=O)NC(=O)C(C)(C)NC(C)=O)[C@@H](C)CC)[C@@H](C)CC)[C@@H](C)CC)C(=O)O` (Ac-[Aib]NLI[Aib]PII[Aib]PI-OH): the Activity result in data set [1] is listed as “Non-Toxic”; in data set [2], “Toxic”. Further, the result in data set [3] was Active.

Regarding `CC[C@H](C)[C@H](NC(=O)[C@@H]1CCCN1C(=O)C(C)(C)NC(=O)[C@@H](NC(=O)[C@@H](NC(=O)[C@@H]1CCCN1C(=O)C(C)(C)NC(=O)[C@H](CC(C)C)NC(=O)[C@H](CC(C)C)NC(=O)[C@H](CC(N)=O)NC(=O)C(C)(C)NC(C)=O)[C@@H](C)CC)[C@@H](C)CC)C(=O)O` (Ac-[Aib]NLL[Aib]PII[Aib]PI-OH), the Activity result in data set [2] is “Toxic”. For the same compound, in data set [3], the outcome was Active.

The values above are taken from ChEMBL document CHEMBL5576117, “Importance of isoleucine residue in ion channel formation ability of 11-residue peptaibols” (Bioorg Med Chem, 2024).
